Data reported in US20260184663A1, “INDENE COMPOUNDS, PHARMACEUTICAL COMPOSITIONS THEREOF, AND THEIR THERAPEUTIC APPLICATIONS” (NucMito Pharmaceuticals co. Ltd., priority 2022, published 2026).

Tests used:
Type in all cases: cell-based
[1] = tested on: MDA-MB-231 (breast cancer); assay: Antiproliferative activity (CCK-8 cell viability), MDA-MB-231; details: Homo sapiens, 72 h; for inhibition at 3.3 µM: Compound concentration: 3.3 μM; for inhibition at 3.3 µM / inhibition at 10 µM: read-out: Antiproliferative activity in cancerous cells, MDA-MB-231 (inhibition of cell growth); for inhibition at 10 µM: Compound concentration: 10 μM
Summary of the method: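 In this CCK-8 viability assay, MDA-MB-231 cells maintained in Dulbecco's modified Eagle's medium containing 10% fetal bovine serum were placed in 96-well plates (2,000-5,000 cells/well) and treated with compound for 72 h at 37° C. A 4 h incubation with 10 μL CCK-8 followed, plates were read at 450 nm, and viability was expressed against DMSO vehicle wells across replicates.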

[2] = tested on: A431 (epidermoid carcinoma); assay: Antiproliferative activity (CCK-8 cell viability), A431; details: Homo sapiens, 72 h, read-out: Antiproliferative activity in cancerous cells, A431 (inhibition of cell growth); for inhibition at 3.3 µM: A-431, Compound concentration: 3.3 μM; for inhibition at 10 µM: A-431, Compound concentration: 10 μM
Summary of the method: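 Cell viability of compound-treated A431 cells was measured with a Cell Counting Kit-8. Each well received 10 μL of CCK-8 after 72 h of compound exposure, followed by 4 h incubation at 37° C. and a 450 nm plate-reader measurement. Percent viability was calculated relative to DMSO controls across replicates.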

[3] = tested on: B16F10 (malignant melanoma); assay: Antiproliferative activity (CCK-8 cell viability), B16F10; details: Mus musculus, 72 h, read-out: Antiproliferative activity in cancerous cells, B16F10 (inhibition of cell growth); for inhibition at 3.3 µM: B16-F10, Compound concentration: 3.3 μM; for inhibition at 10 µM: B16-F10, Compound concentration: 10 μM
Summary of the method: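 Attached B16F10 cells in 96-well plates were incubated with compound at 37° C for 72 h, followed by 10 μL CCK-8 reagent per well and a further 4 h incubation. A multi-well plate reader measured absorbance at 450 nm. Percent viability across replicates was calculated against DMSO vehicle-treated cells.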

HeLa (cervical cancer) = assay: Antiproliferative activity (CCK-8 cell viability), HeLa; details: Homo sapiens, 72 h, read-out: Antiproliferative activity in cancerous cells, HELA (inhibition of cell growth); for inhibition at 3.3 µM: Compound concentration: 3.3 μM; for inhibition at 10 µM: Compound concentration: 10 μM
Summary of the method: (§1)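 Cells were seeded at 2,000-5,000/well (HeLa in MEM, HepG2 and SW480 in DMEM, A549 in F-12K, all with 10% FBS) and treated with compound at 3.3, 10 or 30 μM for 72 h at 37° C. CCK-8 was added for 4 h, absorbance was read at 450 nm, and viability was expressed relative to DMSO-treated wells.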

[4] = tested on: A549 (lung adenocarcinoma); assay: Antiproliferative activity (CCK-8 cell viability), A549; details: Homo sapiens, 72 h, read-out: Antiproliferative activity in cancerous cells, A549 (inhibition of cell growth); for inhibition at 3.3 µM: Compound concentration: 3.3 μM; for inhibition at 10 µM: Compound concentration: 10 μM
Summary of the method: as §1

HepG2 (liver cancer) = assay: Antiproliferative activity (CCK-8 cell viability), HepG2; details: Homo sapiens, 72 h, read-out: Antiproliferative activity in cancerous cells, HepG2 (inhibition of cell growth); for inhibition at 3.3 µM: Compound concentration: 3.3 μM; for inhibition at 10 µM: Compound concentration: 10 μM
Summary of the method: as §1

SW480 (colon cancer) = assay: Antiproliferative activity (CCK-8 cell viability), SW480; details: Homo sapiens, 72 h; for inhibition at 3.3 µM: Compound concentration: 3.3 μM; for inhibition at 3.3 µM / inhibition at 10 µM: read-out: Antiproliferative activity in cancerous cells, SW480 (inhibition of cell growth); for inhibition at 10 µM: Compound concentration: 10 μM
Summary of the method: as §1

CCc1ccc2c(c1)C(CC(=O)O)=C(C)/C2=C/c1ccc(COCc2ccc(Cl)cc2)cc1 [B122, (Z)-2-(1-(4-(((4-Chlorobenzyl)oxy)methyl)benzylidene)-5-ethyl-2-methyl-1H-inden-3-yl)acetic acid]
< 30%: inhibition at 3.3 µM [1] | inhibition at 3.3 µM (HeLa (cervical cancer))
30 to 50%: inhibition at 3.3 µM [3] | inhibition at 3.3 µM [4] | inhibition at 3.3 µM (SW480 (colon cancer))
≥ 50%: inhibition at 10 µM [1] | inhibition at 3.3 µM [2] | inhibition at 10 µM [2] | inhibition at 10 µM [3] | inhibition at 10 µM (HeLa (cervical cancer)) | inhibition at 10 µM [4] | inhibition at 3.3 µM (HepG2 (liver cancer)) | inhibition at 10 µM (HepG2 (liver cancer)) | inhibition at 10 µM (SW480 (colon cancer))

CC1=C(CC(=O)O)c2cc(C)ccc2/C1=C\c1ccc(CCCc2ccc(Cl)cc2)cc1 [B123, (Z)-2-(1-(4-(3-(4-Chlorophenyl)propyl)benzylidene)-2,5-dimethyl-1H-inden-3-yl)acetic acid]
≥ 50%: inhibition at 10 µM [1] | inhibition at 3.3 µM [2] | inhibition at 10 µM [2] | inhibition at 3.3 µM [3] | inhibition at 10 µM [3] | inhibition at 10 µM (HeLa (cervical cancer)) | inhibition at 3.3 µM [4] | inhibition at 10 µM [4] | inhibition at 10 µM (HepG2 (liver cancer)) | inhibition at 10 µM (SW480 (colon cancer))
< 30%: inhibition at 3.3 µM [1] | inhibition at 3.3 µM (HeLa (cervical cancer))
30 to 50%: inhibition at 3.3 µM (HepG2 (liver cancer)) | inhibition at 3.3 µM (SW480 (colon cancer))

CC1=C(CC(=O)O)c2cc(Cl)ccc2/C1=C\c1ccc(CCCc2ccc(F)cc2)cc1 [B125, (Z)-2-(5-Chloro-1-(4-(3-(4-fluorophenyl)propyl)benzylidene)-2-methyl-1H-inden-3-yl)acetic acid]
30 to 50%: inhibition at 3.3 µM [1]
≥ 50%: inhibition at 10 µM [1] | inhibition at 3.3 µM [2] | inhibition at 10 µM [2] | inhibition at 3.3 µM [3] | inhibition at 10 µM [3] | inhibition at 3.3 µM (HeLa (cervical cancer)) | inhibition at 10 µM (HeLa (cervical cancer)) | inhibition at 10 µM [4] | inhibition at 3.3 µM (HepG2 (liver cancer)) | inhibition at 10 µM (HepG2 (liver cancer)) | inhibition at 10 µM (SW480 (colon cancer))
< 30%: inhibition at 3.3 µM [4] | inhibition at 3.3 µM (SW480 (colon cancer))

COc1ccc(CCCc2ccc(/C=C3/C(C)=C(CC(=O)O)c4cc(F)ccc43)cc2)cc1 [B126, (Z)-2-(5-Fluoro-1-(4-(3-(4-methoxyphenyl)propyl)benzylidene)-2-methyl-1H-inden-3-yl)acetic acid]
< 30%: inhibition at 3.3 µM [2] | inhibition at 3.3 µM [3] | inhibition at 3.3 µM [4] | inhibition at 3.3 µM (SW480 (colon cancer))
≥ 50%: inhibition at 3.3 µM [1] | inhibition at 10 µM [1] | inhibition at 10 µM [2] | inhibition at 10 µM [3] | inhibition at 10 µM (HeLa (cervical cancer)) | inhibition at 10 µM [4] | inhibition at 10 µM (HepG2 (liver cancer)) | inhibition at 10 µM (SW480 (colon cancer))
30 to 50%: inhibition at 3.3 µM (HeLa (cervical cancer)) | inhibition at 3.3 µM (HepG2 (liver cancer))

COc1ccc(CCCc2ccc(/C=C3/C(C)=C(CC(=O)O)c4cc(Cl)ccc43)cc2)cc1 [B127, (Z)-2-(5-Chloro-1-(4-(3-(4-methoxyphenyl)propyl)benzylidene)-2-methyl-1H-inden-3-yl)acetic acid]
≥ 50%: inhibition at 3.3 µM [1] | inhibition at 10 µM [1] | inhibition at 3.3 µM [2] | inhibition at 10 µM [2] | inhibition at 3.3 µM [3] | inhibition at 10 µM [3] | inhibition at 3.3 µM (HeLa (cervical cancer)) | inhibition at 10 µM (HeLa (cervical cancer)) | inhibition at 3.3 µM [4] | inhibition at 10 µM [4] | inhibition at 3.3 µM (HepG2 (liver cancer)) | inhibition at 10 µM (HepG2 (liver cancer)) | inhibition at 10 µM (SW480 (colon cancer))
< 30%: inhibition at 3.3 µM (SW480 (colon cancer))

COc1ccc(CCCc2ccc(/C=C3/C(C)=C(CC(=O)O)c4cc(Br)ccc43)cc2)cc1 [B128, (Z)-2-(5-Bromo-1-(4-(3-(4-methoxyphenyl)propyl)benzylidene)-2-methyl-1H-inden-3-yl)acetic acid]
≥ 50%: inhibition at 3.3 µM [1] | inhibition at 10 µM [1] | inhibition at 3.3 µM [2] | inhibition at 10 µM [2] | inhibition at 3.3 µM [3] | inhibition at 10 µM [3] | inhibition at 3.3 µM (HeLa (cervical cancer)) | inhibition at 10 µM (HeLa (cervical cancer)) | inhibition at 3.3 µM [4] | inhibition at 10 µM [4] | inhibition at 3.3 µM (HepG2 (liver cancer)) | inhibition at 10 µM (HepG2 (liver cancer)) | inhibition at 3.3 µM (SW480 (colon cancer)) | inhibition at 10 µM (SW480 (colon cancer))

CC1=C(CC(=O)O)c2cc(F)ccc2/C1=C\c1ccc(CCCc2ccc(O)cc2)cc1 [B129, (Z)-2-(5-Fluoro-1-(4-(3-(4-hydroxyphenyl)propyl)benzylidene)-2-methyl-1H-inden-3-yl)acetic acid]
< 30%: inhibition at 3.3 µM [2] | inhibition at 3.3 µM (HeLa (cervical cancer)) | inhibition at 3.3 µM (HepG2 (liver cancer)) | inhibition at 3.3 µM (SW480 (colon cancer)) | inhibition at 10 µM (SW480 (colon cancer))
≥ 50%: inhibition at 3.3 µM [1] | inhibition at 10 µM [1] | inhibition at 10 µM [2] | inhibition at 3.3 µM [3] | inhibition at 10 µM [3] | inhibition at 10 µM (HeLa (cervical cancer)) | inhibition at 10 µM [4] | inhibition at 10 µM (HepG2 (liver cancer))
30 to 50%: inhibition at 3.3 µM [4]

CC1=C(CC(=O)O)c2cc(F)ccc2/C1=C\c1ccc(CCc2ccc(F)cc2)cc1 [B145, (Z)-2-(5-Fluoro-1-(4-(4-fluorophenethyl)benzylidene)-2-methyl-1H-inden-3-yl)acetic acid]
30 to 50%: inhibition at 3.3 µM (HeLa (cervical cancer)) | inhibition at 30 µM (SW480 (colon cancer); Compound concentration: 30 μM, read-out: Antiproliferative activity in cancerous cells, SW480)
< 30%: inhibition at 3.3 µM [1] | inhibition at 10 µM [1] | inhibition at 3.3 µM [3] | inhibition at 10 µM [3] | inhibition at 3.3 µM [4] | inhibition at 10 µM [4] | inhibition at 3.3 µM (HepG2 (liver cancer)) | inhibition at 3.3 µM (SW480 (colon cancer)) | inhibition at 10 µM (SW480 (colon cancer))
≥ 50%: inhibition at 3.3 µM [2] | inhibition at 10 µM [2] | inhibition at 10 µM (HeLa (cervical cancer)) | inhibition at 10 µM (HepG2 (liver cancer))

CC1=C(CC(=O)O)c2cc(C)ccc2/C1=C\c1ccc(CCc2ccccc2)cc1 [B147, (Z)-2-(2,5-Dimethyl-1-(4-phenethylbenzylidene)-1H-inden-3-yl)acetic acid]
30 to 50%: inhibition at 30 µM ([1]; Compound concentration: 30 μM, read-out: Antiproliferative activity in cancerous cells, MDA-MB-231)
≥ 50%: inhibition at 3.3 µM [2] | inhibition at 10 µM [2] | inhibition at 10 µM [3] | inhibition at 10 µM (HeLa (cervical cancer)) | inhibition at 10 µM [4] | inhibition at 10 µM (HepG2 (liver cancer)) | inhibition at 10 µM (SW480 (colon cancer))
< 30%: inhibition at 3.3 µM [1] | inhibition at 10 µM [1] | inhibition at 3.3 µM [3] | inhibition at 3.3 µM (HeLa (cervical cancer)) | inhibition at 3.3 µM [4] | inhibition at 3.3 µM (HepG2 (liver cancer)) | inhibition at 3.3 µM (SW480 (colon cancer))

CC1=C(CC(=O)O)c2cc(Cl)ccc2/C1=C\c1ccc(COCc2ccc(F)cc2)cc1 [B148, (Z)-2-(5-Chloro-1-(4-(((4-fluorobenzyl)oxy)methyl)benzylidene)-2-methyl-1H-inden-3-yl)acetic acid]
< 30%: inhibition at 3.3 µM [3] | inhibition at 10 µM [3] | inhibition at 3.3 µM (HepG2 (liver cancer))
30 to 50%: inhibition at 3.3 µM [1] | inhibition at 10 µM [1] | inhibition at 3.3 µM (HeLa (cervical cancer)) | inhibition at 3.3 µM [4]
≥ 50%: inhibition at 3.3 µM [2] | inhibition at 10 µM [2] | inhibition at 10 µM (HeLa (cervical cancer)) | inhibition at 10 µM [4] | inhibition at 10 µM (HepG2 (liver cancer)) | inhibition at 3.3 µM (SW480 (colon cancer)) | inhibition at 10 µM (SW480 (colon cancer))
